Results on one compound are retold here after publication PMC11395232, “Aquaporin-3a Dysfunction Impairs Osmoadaptation in Post-Activated Marine Fish Spermatozoa” (International Journal of Molecular Sciences, 2024).

For one assay, the target named is T1, human AQP3 (HsAQP3) (Homo sapiens, UniProt Q92482).
T1 construct: cDNA heterologously expressed in Xenopus laevis oocytes (10 ng cRNA)
T1 sequence (Q92482 1-292): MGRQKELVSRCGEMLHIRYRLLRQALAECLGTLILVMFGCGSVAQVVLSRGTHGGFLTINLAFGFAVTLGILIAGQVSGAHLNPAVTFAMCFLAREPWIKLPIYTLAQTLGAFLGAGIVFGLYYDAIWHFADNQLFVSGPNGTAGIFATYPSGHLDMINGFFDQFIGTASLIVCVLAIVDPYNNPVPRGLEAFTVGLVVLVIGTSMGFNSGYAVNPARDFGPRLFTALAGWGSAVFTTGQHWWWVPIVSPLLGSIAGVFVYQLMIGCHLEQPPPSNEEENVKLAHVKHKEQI
Put plainly: oocyte swelling assay, osmotic water permeability (Pf). Format: cell-based.

The next assay concerns the target T2, Aqp3a (SaAqp3a) (Sparus aurata, UniProt A0A671Y259).
T2 construct: cDNA heterologously expressed in Xenopus laevis oocytes (10 ng cRNA); calculated monomer mass 33 kDa
T2 sequence (A0A671Y259 1-302): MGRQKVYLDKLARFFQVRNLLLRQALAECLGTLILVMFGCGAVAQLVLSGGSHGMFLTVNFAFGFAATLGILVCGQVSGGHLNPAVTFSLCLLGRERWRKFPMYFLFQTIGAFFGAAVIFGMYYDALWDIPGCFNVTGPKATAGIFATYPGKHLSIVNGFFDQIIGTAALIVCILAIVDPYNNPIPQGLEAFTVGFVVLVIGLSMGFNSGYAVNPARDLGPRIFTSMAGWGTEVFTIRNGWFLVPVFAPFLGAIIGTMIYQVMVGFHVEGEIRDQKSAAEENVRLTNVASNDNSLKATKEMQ
The assay is described as above. Format: cell-based.

Consider `O=C(Nc1csc([N+](=O)[O-])c1)Nc1c(Cl)cccc1Cl` [DFP00173], for which the inhibition at 10 µM was 66 ± 4% at human AQP3 (HsAQP3) and 76 ± 4% at Aqp3a (SaAqp3a).

By inhibition is commonly meant the drop in the measured response relative to a control, in per cent.
